Assay results taken from patent publication US9643976B2, “Solvates of darunavir” (Aurobindo Pharma Ltd., priority 2012, dated 2017).

Assays:
[1] = hygroscopicity at moderate or high relative humidity at 25° C.; assay type: physicochemical
Excerpt: Further, the isolation of Darunavir ethanolate involves special precautions during isolation, drying and powder processing, which is onerous during the large scale manufacturing of Darunavir ethanolate.

[2] = hygroscopic testing (solvent content before and after); settings: for Final (Solvent content): after hygroscopic testing at 25° C.±2° C. and 80% RH±2° C. for 24 h, solvent replaced with water; for Initial (Solvent content): before hygroscopic testing

SMILES | hygroscopicity / conversion to hydrate [1] | Final (Solvent content) [2] [%] | Initial (Solvent content) [2] [%]
CC(C)CN(C[C@@H](O)[C@H](Cc1ccccc1)NC(=O)O[C@H]1CO[C@H]2OCC[C@H]21)S(=O)(=O)c1ccc(N)cc1 [Darunavir ethanolate] | hygroscopic and converts to Darunavir hydrate | 0.67 | 6.75
CC(C)CN(C[C@@H](O)[C@H](Cc1ccccc1)NC(=O)O[C@H]1CO[C@H]2OCC[C@H]21)S(=O)(=O)c1ccc(N)cc1 [Darunavir propylene glycolate] |  | 10.37 | 11.51
